Source: the NIST ThermoML archive (doi:10.1016/j.jct.2012.03.003)
Numbers after ± are expanded uncertainties.

Experiment: xn = mol fraction of the nth substance listed
Details: Liquid, Vibrating tube method

COc1cc2c(cc1O)CC1c3c(cc(O)c(OC)c3-2)CCN1C (stereo not given) [boldine] + CCO
Details	mass density [kg/m3]
342.92 K, 18000 kPa, x1 = 0.0074	778.92 ± 0.92
342.92 K, 19000 kPa, x1 = 0.0012	767.14 ± 0.91
342.92 K, 19000 kPa, x1 = 0.0074	779.83 ± 0.92
342.92 K, 20000 kPa, x1 = 0.0012	768.07 ± 0.91
342.92 K, 20000 kPa, x1 = 0.0074	780.71 ± 0.93
343.02 K, 1000 kPa, x1 = 0.0136	775.25 ± 0.96
343.02 K, 2000 kPa, x1 = 0.0136	776.31 ± 0.96
343.02 K, 3000 kPa, x1 = 0.0136	777.37 ± 0.96
343.02 K, 4000 kPa, x1 = 0.0136	778.42 ± 0.96
343.02 K, 5000 kPa, x1 = 0.0136	779.47 ± 0.96
343.02 K, 6000 kPa, x1 = 0.0136	780.52 ± 0.96
343.02 K, 7000 kPa, x1 = 0.0136	781.56 ± 0.97
343.02 K, 8000 kPa, x1 = 0.0136	782.6 ± 0.97
343.02 K, 9000 kPa, x1 = 0.0136	783.63 ± 0.97
343.02 K, 10000 kPa, x1 = 0.0136	784.63 ± 0.97
343.02 K, 11000 kPa, x1 = 0.0136	785.65 ± 0.97
343.02 K, 12000 kPa, x1 = 0.0136	786.65 ± 0.97
343.02 K, 13000 kPa, x1 = 0.0136	787.64 ± 0.97
343.02 K, 14000 kPa, x1 = 0.0136	788.62 ± 0.97
343.02 K, 15000 kPa, x1 = 0.0136	789.58 ± 0.98
343.02 K, 16000 kPa, x1 = 0.0136	790.53 ± 0.98
343.02 K, 17000 kPa, x1 = 0.0136	791.46 ± 0.98
343.02 K, 18000 kPa, x1 = 0.0136	792.39 ± 0.98
343.02 K, 19000 kPa, x1 = 0.0136	793.28 ± 0.98
343.02 K, 20000 kPa, x1 = 0.0136	794.17 ± 0.99
352.79 K, 1000 kPa, x1 = 0.0196	780.8 ± 0.84
352.79 K, 2000 kPa, x1 = 0.0196	781.92 ± 0.84
352.79 K, 3000 kPa, x1 = 0.0196	783.03 ± 0.84
352.79 K, 4000 kPa, x1 = 0.0196	784.09 ± 0.84
352.79 K, 5000 kPa, x1 = 0.0196	785.23 ± 0.84
352.79 K, 6000 kPa, x1 = 0.0196	786.32 ± 0.84
352.79 K, 7000 kPa, x1 = 0.0196	787.4 ± 0.85
352.79 K, 8000 kPa, x1 = 0.0196	788.47 ± 0.85
352.79 K, 9000 kPa, x1 = 0.0196	789.53 ± 0.85
352.79 K, 10000 kPa, x1 = 0.0196	790.58 ± 0.85
352.79 K, 11000 kPa, x1 = 0.0196	791.62 ± 0.85
352.79 K, 12000 kPa, x1 = 0.0196	792.64 ± 0.85
352.79 K, 13000 kPa, x1 = 0.0196	793.65 ± 0.85
352.79 K, 14000 kPa, x1 = 0.0196	794.65 ± 0.86
352.79 K, 15000 kPa, x1 = 0.0196	795.64 ± 0.86
352.79 K, 16000 kPa, x1 = 0.0196	796.61 ± 0.86
352.79 K, 17000 kPa, x1 = 0.0196	797.57 ± 0.86
352.79 K, 18000 kPa, x1 = 0.0196	798.51 ± 0.86
352.79 K, 19000 kPa, x1 = 0.0196	799.44 ± 0.87
352.79 K, 20000 kPa, x1 = 0.0196	800.36 ± 0.87
352.81 K, 1000 kPa, x1 = 0.0012	738.74 ± 0.88
352.81 K, 1000 kPa, x1 = 0.0136	765.67 ± 0.96
352.81 K, 2000 kPa, x1 = 0.0012	739.95 ± 0.89
352.81 K, 2000 kPa, x1 = 0.0136	766.82 ± 0.96
352.81 K, 3000 kPa, x1 = 0.0012	741.15 ± 0.88
352.81 K, 3000 kPa, x1 = 0.0136	767.97 ± 0.96
352.81 K, 4000 kPa, x1 = 0.0012	742.33 ± 0.88
352.81 K, 4000 kPa, x1 = 0.0136	769.1 ± 0.96
352.81 K, 5000 kPa, x1 = 0.0012	743.51 ± 0.89
352.81 K, 5000 kPa, x1 = 0.0136	770.24 ± 0.96
352.81 K, 6000 kPa, x1 = 0.0012	744.68 ± 0.89
352.81 K, 6000 kPa, x1 = 0.0136	771.36 ± 0.96
352.81 K, 7000 kPa, x1 = 0.0012	745.85 ± 0.89
352.81 K, 7000 kPa, x1 = 0.0136	772.46 ± 0.96
352.81 K, 8000 kPa, x1 = 0.0012	746.99 ± 0.89
352.81 K, 8000 kPa, x1 = 0.0136	773.56 ± 0.96
352.81 K, 9000 kPa, x1 = 0.0012	748.13 ± 0.89
352.81 K, 9000 kPa, x1 = 0.0136	774.65 ± 0.96
352.81 K, 10000 kPa, x1 = 0.0012	749.26 ± 0.89
352.81 K, 10000 kPa, x1 = 0.0136	775.73 ± 0.97
352.81 K, 11000 kPa, x1 = 0.0012	750.37 ± 0.9
352.81 K, 11000 kPa, x1 = 0.0136	776.81 ± 0.97
352.81 K, 12000 kPa, x1 = 0.0012	751.47 ± 0.9
352.81 K, 12000 kPa, x1 = 0.0136	777.86 ± 0.97
352.81 K, 13000 kPa, x1 = 0.0012	752.55 ± 0.9
352.81 K, 13000 kPa, x1 = 0.0136	778.9 ± 0.97
352.81 K, 14000 kPa, x1 = 0.0012	753.61 ± 0.9
352.81 K, 14000 kPa, x1 = 0.0136	779.93 ± 0.97
352.81 K, 15000 kPa, x1 = 0.0012	754.67 ± 0.91
352.81 K, 15000 kPa, x1 = 0.0136	780.95 ± 0.97
